Assay results as given in patent publication US20210353593A1 (Chinook Therapeutics, Inc., priority 2019, published 2021).

Test system: hallmark gene sets in kidney tissue of g-ddY mice
Test: Gene Set Enrichment Analysis (GSEA) of hallmark gene sets, g-ddY mouse kidney RNA-seq
Assay type: in vivo

## CCCCN(CCCC)C(=O)CN1C[C@H](c2ccc3c(c2)OCO3)[C@@H](C(=O)O)[C@@H]1c1ccc(OC)cc1 [Atrasentan, (2R,3R,4S)-4-(1,3-benzodioxol-5-yl)-1-[2-(dibutylamino)-2-oxoethyl]-2-(4-methoxyphenyl)pyrrolidine-3-carboxylic acid]
10 mg/kg/day vs. control
  HALLMARK_ADIPOGENESIS NES: 2.15
  HALLMARK_ALLOGRAFT_REJECTION NES: −2.25
  HALLMARK_ANDROGEN_RESPONSE NES: 0.88
  HALLMARK_ANGIOGENESIS NES: −1.94
  HALLMARK_APICAL_JUNCTION NES: −1.79
  HALLMARK_APICAL_SURFACE NES: −1.52
  HALLMARK_APOPTOSIS NES: −1.59
  HALLMARK_BILE_ACID_METABOLISM NES: 2.08
  HALLMARK_CHOLESTEROL_HOMEOSTASIS NES: 1.03
  HALLMARK_COAGULATION NES: −1.53
  HALLMARK_COMPLEMENT NES: −1.51
  HALLMARK_DNA_REPAIR NES: 0.79
  HALLMARK_E2F_TARGETS NES: −2.07
  HALLMARK_EPITHELIAL_MESENCHYMAL_TRANSITION NES: −2.47
  HALLMARK_ESTROGEN_RESPONSE_EARLY NES: −1.27
  HALLMARK_ESTROGEN_RESPONSE_LATE NES: −1.18
  HALLMARK_FATTY_ACID_METABOLISM NES: 2.25
  HALLMARK_G2M_CHECKPOINT NES: −2.15
  HALLMARK_GLYCOLYSIS NES: 1.62
  HALLMARK_HEDGEHOG_SIGNALING NES: −1.51
  HALLMARK_HEME_METABOLISM NES: 1.57
  HALLMARK_HYPOXIA NES: −1.38
  HALLMARK_IL2_STAT5_SIGNALING NES: −1.77
  HALLMARK_IL6_JAK_STAT3_SIGNALING NES: −2.34
  HALLMARK_INFLAMMATORY_RESPONSE NES: −2.34
  HALLMARK_INTERFERON_ALPHA_RESPONSE NES: −1.96
  HALLMARK_INTERFERON_GAMMA_RESPONSE NES: −2.26
  HALLMARK_KRAS_SIGNALING_DN NES: 1.28
  HALLMARK_KRAS_SIGNALING_UP NES: −2.24
  HALLMARK_M ITOTIC_SPINDLE NES: −1.55
  HALLMARK_MTORC1_SIGNALING NES: 1.11
  HALLMARK_MYC_TARGETS_V1 NES: −1.17
  HALLMARK_MYC_TARGETS_V2 NES: −0.780
  HALLMARK_MYOGENESIS NES: −1.19
  HALLMARK_NOTCH_SIGNALING NES: 0.83
  HALLMARK_OXIDATIVE_PHOSPHORYLATION NES: 3.06
  HALLMARK_P53_PATHWAY NES: −1.12
  HALLMARK_PANCREAS_BETA_CELLS NES: 0.85
  HALLMARK_PEROXISOME NES: 1.68
  HALLMARK_PI3K_AKT_MTOR SIGNALING NES: −0.92
  HALLMARK_PROTEIN_SECRETION NES: 1.06
  HALLMARK_REACTIVE_OXYGEN_SPECIES_PATHWAY NES: 1.59
  HALLMARK_SPERMATOGENESIS NES: 0.89
  HALLMARK_TGF_BETA_SIGNALING NES: −1.72
  HALLMARK_TNFA_SIGNALING_VIA_NFKB NES: −2.55
  HALLMARK_UNFOLDED_PROTEIN_RESPONSE NES: −0.91
  HALLMARK_UV_RESPONSE_DN NES: −2.19
  HALLMARK_UV_RESPONSE_UP NES: 1.28
  HALLMARK_WNT_BETA_CATENIN_SIGNALING NES: −1.02
  HALLMARK_XENOBIOTIC_METABOLISM NES: 1.95
20 mg/kg/day vs. control
  HALLMARK_ADIPOGENESIS NES: 2.26
  HALLMARK_ALLOGRAFT_REJECTION NES: −2.90
  HALLMARK_ANDROGEN_RESPONSE NES: 1.03
  HALLMARK_ANGIOGENESIS NES: −2.19
  HALLMARK_APICAL_JUNCTION NES: −2.24
  HALLMARK_APICAL_SURFACE NES: −1.67
  HALLMARK_APOPTOSIS NES: −2.17
  HALLMARK_BILE_ACID_METABOLISM NES: 2.39
  HALLMARK_CHOLESTEROL_HOMEOSTASIS NES: −1.03
  HALLMARK_COAGULATION NES: −2.11
  HALLMARK_COMPLEMENT NES: −2.01
  HALLMARK_DNA_REPAIR NES: 0.83
  HALLMARK_E2F_TARGETS NES: −2.34
  HALLMARK_EPITHELIAL_MESENCHYMAL_TRANSITION NES: −2.92
  HALLMARK_ESTROGEN_RESPONSE_EARLY NES: −1.52
  HALLMARK_ESTROGEN_RESPONSE_LATE NES: −1.37
  HALLMARK_FATTY_ACID_METABOLISM NES: 2.51
  HALLMARK_G2M_CHECKPOINT NES: −2.26
  HALLMARK_GLYCOLYSIS NES: 1.53
  HALLMARK_HEDGEHOG_SIGNALING NES: −1.72
  HALLMARK_HEME_METABOLISM NES: 1.92
  HALLMARK_HYPOXIA NES: −1.62
  HALLMARK_IL2_STAT5_SIGNALING NES: −2.20
  HALLMARK_IL6_JAK_STAT3_SIGNALING NES: −2.92
  HALLMARK_INFLAMMATORY_RESPONSE NES: −2.96
  HALLMARK_INTERFERON_ALPHA_RESPONSE NES: −2.44
